In patent US11279733B2, “Peptide antibiotics” (priority 2017, dated 2022):
Values after ≈ are worked out from the molar mass of the structure shown. Where two headings read alike, the source gives them in different places. Positions of bridges follow the written chain, without caps; N, C: chain ends. Non-standard residues stand in square brackets, D forms with d. Residues, ends and D or L forms follow the SMILES beside them. *: point of attachment. dPhe(4-NO2) = N[C@H](Cc1ccc([N+](=O)[O-])cc1)C(=O)O; Decanoyl(3R-OH) = CCCCCCC[C@@H](O)CC(=O)*; dPhe(4-NH2) = Nc1ccc(C[C@@H](N)C(=O)O)cc1; Phe(4-NH2) = Nc1ccc(C[C@H](N)C(=O)O)cc1; Nonanoyl = CCCCCCCCC(=O)*; dDab = NCC[C@@H](N)C(=O)O; Octanoyl = CCCCCCCC(=O)*; dDap = NC[C@@H](N)C(=O)O; Dab = NCC[C@H](N)C(=O)O

Columns and labels:
[1] = test system: K. pneumoniae ATCC 700603, MDR; details: ATCC 700603
Procedure: (§1) Bacteria were either obtained from American Type Culture Collection (ATCC; Manassas, Va., USA) or independent academic clinical isolate collections, as listed in Table 18 below. Bacteria were cultured in Nutrient broth (NB; Bacto Laboratories, catalogue No. 234000) or Mueller Hinton broth (MHB; Bacto Laboratories, catalogue No. 211443) at 37° C. overnight with shaking (˜180 RPM). A sample of each culture was then diluted 50-fold in fresh MHB and incubated at 37° C. for 2-3 h with shaking (˜180 RPM). Compound stock solutions were prepared as 0.64 mg/mL or 2.56 mg/mL in water. The compounds, at twice the final desired concentration, were serially diluted 2-fold across the wells of 96-well plates (Polystyrene, Corning, catalogue No. 3370). Mid-log phase bacterial cultures (after 2-3 h incubation) were diluted to a final concentration of 1×10^6 colony forming units (CFU)/mL, and 50 μL was added to each well giving a final cell density of 5×10^5 and a compound concentration range of 32 μg/mL to 0.015 μg/mL (128-0.06 μg/mL against P. aeruginosa PA9704).

[2] = test system: P. aeruginosa GN_105, PmxR; details: GN 105, PmxR
Procedure: as §1

[3] = test system: K. pneumoniae ATCC 13883; details: ATCC 13883
Procedure: as §1

[4] = test system: K. pneumoniae GN_102 PmxR; details: GN 102 PmxR
Procedure: as §1

[5] = test system: K. pneumoniae ATCC BAA-2146, NDM-1 pos; details: ATCC BAA-2146
Procedure: as §1

[6] = test system: K. pneumoniae GN_106, PmxR; details: GN 106, PmxR
Procedure: as §1

[7] = test system: P. aeruginosa ATCC 27853; details: ATCC 27853
Procedure: as §1

[8] = test system: E. coli ATCC 25922; details: ATCC 25922
Procedure: as §1

[9] = test system: A. baumannii ATCC 19606; details: ATCC 19606
Procedure: as §1

[10] = test system: P. aeruginosa GN_043, PmxR; details: for MIC, P. aeruginosa FADDI-PA070, PmxR: Table 5
Procedure: as §1

[11] = test system: A. baumannii GN_093 PmxR; details: GN 093 PmxR
Procedure: as §1

[12] = test system: S. aureus ATCC 25923, MSSA; details: ATCC 25923
Procedure: as §1

| SMILES | MIC, K. pneumoniae ATCC 700603, MDR [1] [µg/mL] | MIC, K. pneumoniae ATCC 13883 [3] [µg/mL] | MIC, K. pneumoniae ATCC BAA-2146, NDM-1 pos [5] [µg/mL] | MIC, P. aeruginosa ATCC 27853 [7] [µg/mL] | MIC, E. coli ATCC 25922 [8] [µg/mL] | MIC, A. baumannii ATCC 19606 [9] [µg/mL] | MIC K. pneumoniae ATCC 700603, MDR [1] [µg/mL] | MIC P. aeruginosa GN_105, PmxR [2] [µg/mL] | MIC K. pneumoniae ATCC 13883 [3] [µg/mL] | MIC K. pneumoniae GN_102 PmxR [4] [µg/mL] | MIC K. pneumoniae ATCC BAA-2146, NDM-1 pos [5] [µg/mL] | MIC K. pneumoniae GN_106, PmxR [6] [µg/mL] | MIC P. aeruginosa ATCC 27853 [7] [µg/mL] | MIC E. coli ATCC 25922 [8] [µg/mL] | MIC A. baumannii ATCC 19606 [9] [µg/mL] | MIC P. aeruginosa GN_043, PmxR ([10]; P. aeruginosa GN_043, PmxR) [µg/mL] | MIC A. baumannii GN_093 PmxR [11] [µg/mL] | MIC S. aureus ATCC 25923, MSSA [12] [µg/mL] | also measured |
| --- | --- | --- | --- | --- | --- | --- | --- | --- | --- | --- | --- | --- | --- | --- | --- | --- | --- | --- | --- |
| CCCCCCC[C@@H](O)CC(=O)N[C@H](CCN)C(=O)N[C@H]1CCNC(=O)[C@H](CC(C)C)NC(=O)[C@H](CCN)NC(=O)[C@H](Cc2ccc(N)cc2)NC(=O)[C@H](CC(C)C)NC(=O)[C@@H](Cc2ccccc2)NC(=O)[C@H](CCN)NC1=O [compound 8642, 3(R)OH-nC9CO-D-Dab-cyc[L-Dab-L-DAB-D-Phe-L-Leu-L-4NH2Phe-L-Dab-L-Leu]] ({Decanoyl(3R-OH)}-[dDab][Dab][Dab][dF]L[Phe(4-NH2)][Dab]L; lactam 2-C) | 4 (≈ 3.62 µM) | 4 (≈ 3.62 µM) | 4 (≈ 3.62 µM) | 8 (≈ 7.23 µM) | 4 (≈ 3.62 µM) | 8 (≈ 7.23 µM) | – | – | – | – | – | – | – | – | – | – | – | – | MIC, P. aeruginosa PA9704, PmxR [2]: 8 µg/mL (≈ 7.23 µM); MIC, K. pneumoniae Cl Koprana 10065 0661:1, PmxR [4]: 2 µg/mL (≈ 1.81 µM); MIC, K. pneumoniae Cl 138-16347-20362, PmxR [6]: 4 µg/mL (≈ 3.62 µM); MIC, P. aeruginosa FADDI-PA070, PmxR ([10]; polymyxin-resistant): 8 µg/mL (≈ 7.23 µM); MIC, A. baumannii Cl Ptyela 10073 4512:2, PmxR [11]: 16 µg/mL (≈ 14.5 µM); MIC, S. Aureus ATCC 25923, MSSA [12]: 8 µg/mL (≈ 7.23 µM) |
| CCCCCCC[C@@H](O)CC(=O)N[C@H](Cc1ccc([N+](=O)[O-])cc1)C(=O)N[C@H]1CCNC(=O)[C@H](CC(C)C)NC(=O)[C@H](CCN)NC(=O)[C@H](CCN)NC(=O)[C@H](Cc2ccccc2)NC(=O)[C@@H](CC(C)C)NC(=O)[C@H](CCN)NC1=O [compound 6433, 3(R)OH-nC9CO-D-4NO2Phe-cyc[L-Dab-L-Dab-D-Leu-L-Phe-L-Dab-L-Dab-L-Leu]] ({Decanoyl(3R-OH)}-[dPhe(4-NO2)][Dab][Dab][dL]F[Dab][Dab]L; lactam 2-C) | – | – | – | – | – | – | 8 (≈ 7.04 µM) | 8 (≈ 7.04 µM) | 8 (≈ 7.04 µM) | 4 (≈ 3.52 µM) | 8 (≈ 7.04 µM) | 4 (≈ 3.52 µM) | 8 (≈ 7.04 µM) | 8 (≈ 7.04 µM) | 8 (≈ 7.04 µM) | 4 (≈ 3.52 µM) | 16 (≈ 14.1 µM) | 8 (≈ 7.04 µM) | – |
| CCCCCCC[C@@H](O)CC(=O)N[C@H](CCN)C(=O)N[C@H]1CCNC(=O)[C@H](CC(C)C)NC(=O)[C@H](CCN)NC(=O)[C@H](CCN)NC(=O)[C@H](CC(C)C)NC(=O)[C@@H](Cc2ccccc2)NC(=O)[C@H](CCCNC(=N)N)NC1=O [compound 8634, 3(R)OH-nC9CO-D-Dab-cyc[L-Dab-L-Arg-D-Phe-L-Leu-L-Dab-L-Dab-L-Leu]] ({Decanoyl(3R-OH)}-[dDab][Dab]R[dF]L[Dab][Dab]L; lactam 2-C) | 4 (≈ 3.63 µM) | 8 (≈ 7.27 µM) | 8 (≈ 7.27 µM) | 4 (≈ 3.63 µM) | 8 (≈ 7.27 µM) | 16 (≈ 14.5 µM) | – | – | – | – | – | – | – | – | – | – | – | – | MIC, P. aeruginosa PA9704, PmxR [2]: 4 µg/mL (≈ 3.63 µM); MIC, K. pneumoniae Cl Koprana 10065 0661:1, PmxR [4]: 4 µg/mL (≈ 3.63 µM); MIC, K. pneumoniae Cl 138-16347-20362, PmxR [6]: 8 µg/mL (≈ 7.27 µM); MIC, P. aeruginosa FADDI-PA070, PmxR ([10]; polymyxin-resistant): 2 µg/mL (≈ 1.82 µM); MIC, A. baumannii Cl Ptyela 10073 4512:2, PmxR [11]: 32 µg/mL (≈ 29.1 µM); MIC, S. Aureus ATCC 25923, MSSA [12]: 16 µg/mL (≈ 14.5 µM) |
| CCCCCCC[C@@H](O)CC(=O)N[C@H](Cc1ccc(N)cc1)C(=O)N[C@H]1CCNC(=O)[C@H](CC(C)C)NC(=O)[C@H](CCN)NC(=O)[C@H](CCN)NC(=O)[C@H](CC(C)C)NC(=O)[C@@H](Cc2ccccc2)NC(=O)[C@H](CCN)NC1=O [compound 6444, 3(R)OH-nC9CO-D-4NH2Phe-cyc[L-Dab-L-Dab-D-Phe-L-Leu-L-Dab-L-Dab-L-Leu]] ({Decanoyl(3R-OH)}-[dPhe(4-NH2)][Dab][Dab][dF]L[Dab][Dab]L; lactam 2-C) | 8 (≈ 7.23 µM) | 8 (≈ 7.23 µM) | 8 (≈ 7.23 µM) | 16 (≈ 14.5 µM) | 8 (≈ 7.23 µM) | 32 (≈ 28.9 µM) | – | 16 (≈ 14.5 µM) | – | 8 (≈ 7.23 µM) | – | 8 (≈ 7.23 µM) | – | – | – | – | 32 (≈ 28.9 µM) | – | MIC P. aeruginosa GN_043, PmxR ([10]; Table 6, polymyxin-resistant): 32 µg/mL (≈ 28.9 µM); MIC, S. aureus ATCC 25923, MSSA [12]: >32 µg/mL |
| CCCCCCCC(=O)N[C@H](CN)C(=O)N[C@H]1CCNC(=O)[C@H](CC(C)C)NC(=O)[C@H](CCN)NC(=O)[C@H](CCN)NC(=O)[C@H](CC(C)C)NC(=O)[C@@H](CC(C)C)NC(=O)[C@H](CCN)NC1=O [compound 8978, nC7CO-D-Dap-cyc[L-Dab-L-Dab-D-Leu-L-Leu-L-Dab-L-Dab-L-Leu]] (Octanoyl-[dDap][Dab][Dab][dL]L[Dab][Dab]L; lactam 2-C) | – | – | – | – | – | – | 16 (≈ 16.8 µM) | 2 (≈ 2.1 µM) | 16 (≈ 16.8 µM) | 32 (≈ 33.6 µM) | 16 (≈ 16.8 µM) | 32 (≈ 33.6 µM) | 2 (≈ 2.1 µM) | 4 (≈ 4.2 µM) | 32 (≈ 33.6 µM) | 4 (≈ 4.2 µM) | 8 (≈ 8.4 µM) | >32 | – |
| CCCCCCC[C@@H](O)CC(=O)N[C@H](CCN)C(=O)N[C@H]1CCNC(=O)[C@H](CC(C)C)NC(=O)[C@H](CCN)NC(=O)[C@H](CCN)NC(=O)[C@H](Cc2ccccc2)NC(=O)[C@@H](Cc2ccccc2)NC(=O)[C@H](CCN)NC1=O [compound 5003, 3(R)OH-nC9CO-D-Dab-cyc[L-Dab-L-Dab-D-Phe-L-Phe-L-Dab-L-Dab-L-Leu]] ({Decanoyl(3R-OH)}-[dDab][Dab][Dab][dF]F[Dab][Dab]L; lactam 2-C) | – | – | – | – | – | – | 16 (≈ 14.8 µM) | 2 (≈ 1.85 µM) | 4 (≈ 3.71 µM) | 4 (≈ 3.71 µM) | 16 (≈ 14.8 µM) | 4 (≈ 3.71 µM) | 2 (≈ 1.85 µM) | 8 (≈ 7.42 µM) | 16 (≈ 14.8 µM) | 2 (≈ 1.85 µM) | 8 (≈ 7.42 µM) | 8 (≈ 7.42 µM) | – |
| CCCCCCC[C@@H](O)CC(=O)N[C@H](Cc1c[nH]c2ccccc12)C(=O)N[C@H]1CCNC(=O)[C@H](CC(C)C)NC(=O)[C@H](CCN)NC(=O)[C@H](CCN)NC(=O)[C@H](Cc2ccccc2)NC(=O)[C@@H](CC(C)C)NC(=O)[C@H](CCN)NC1=O [compound 6426, 3(R)OH-nC9CO-D-Trp-cyc[L-Dab-L-Dab-D-Leu-L-Phe-L-Dab-L-Dab-L-Leu]] ({Decanoyl(3R-OH)}-[dW][Dab][Dab][dL]F[Dab][Dab]L; lactam 2-C) | – | – | – | – | – | – | 8 (≈ 7.08 µM) | 8 (≈ 7.08 µM) | 8 (≈ 7.08 µM) | 4 (≈ 3.54 µM) | 8 (≈ 7.08 µM) | 4 (≈ 3.54 µM) | 8 (≈ 7.08 µM) | 4 (≈ 3.54 µM) | 16 (≈ 14.2 µM) | 8 (≈ 7.08 µM) | 16 (≈ 14.2 µM) | 8 (≈ 7.08 µM) | – |
| CCCCCCCCC(=O)N[C@@H](CCN)C(=O)N[C@H](C(=O)N[C@@H](CCN)C(=O)N[C@H]1CCNC(=O)[C@H](Cc2c[nH]c3ccccc23)NC(=O)[C@H](CCN)NC(=O)[C@H](CCN)NC(=O)[C@H](CC(C)C)NC(=O)[C@@H](Cc2ccccc2)NC(=O)[C@H](CCN)NC1=O)[C@@H](C)O [compound 9032, nC8CO-L-Dab-L-Thr-L-Dab-cyc[L-Dab-L-Dab-D-Phe-L-Leu-L-Dab-L-Dab-L-Trp]] (Nonanoyl-[Dab]T[Dab][Dab][Dab][dF]L[Dab][Dab]W; lactam 4-C) | – | – | – | – | – | – | 8 (≈ 6.21 µM) | 2 (≈ 1.55 µM) | 8 (≈ 6.21 µM) | 4 (≈ 3.1 µM) | 8 (≈ 6.21 µM) | 4 (≈ 3.1 µM) | 2 (≈ 1.55 µM) | 4 (≈ 3.1 µM) | 8 (≈ 6.21 µM) | – | 8 (≈ 6.21 µM) | 16 (≈ 12.4 µM) | MIC P. aeruginosa GN_043, PmxR ([10]; polymyxin-resistant): 1 µg/mL (≈ 0.776 µM) |
